Values of other authors as cited in US20060128805A1, “Methods of treating erythropoietin-resistance” (priority 2004, published 2006).

Settings: within the first hour of oral administration

Structure (SMILES): Cc1c(O)c(=O)ccn1C [deferiprone, 1,2-dimethyl-3-hydroxy-pyrid-4-one]
- mean increase in plasma aluminum: about 90%
